PubChem BioAssay AID1919006 (Molecular Pharmacology Branch, DTP, NCI, 2023)

System: 885512-296-R-J2-PDC complex spheroid growth, % test/control
Assay: Anticancer human tumor 885512-296-R-J2-PDC patient-derived breast carcinoma cell line growth inhibition [AhR]
Conditions: for IC50: curve of first compound; for viability, T/C: stronger effect = lower value
Outline: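 Spheroids combined tumor cells with HUVEC endothelial cells and human MSCs as stroma. AhR antagonists were paired with standard or investigational drugs, each dosed in half-log steps down from near clinical Cmax, or from 10 microM where Cmax was unknown.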
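Note: spheroids exposed to compounds for seven days.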

IC50 (second compound 0.1 µM): > 10 µM | IC50 (second compound 0.316 µM): > 10 µM | IC50 (second compound 1 µM): > 10 µM | IC50 (second compound 3.16 µM): > 10 µM | IC50 (second compound 10 µM): < 0.0316 µM
SMILES: CC(C)c1c(-c2ccccc2)nc2c(C#N)c[nH]n2c1=O + Cc1cncc(-c2nc(NCCc3c[nH]c4ccccc34)c3ncn(C(C)C)c3n2)c1
viability, T/C (second compound 0.1 µM, first compound 0.0316 µM): 108% | viability, T/C (second compound 0.1 µM, first compound 0.1 µM): 108% | viability, T/C (second compound 0.1 µM, first compound 0.316 µM): 101% | viability, T/C (second compound 0.1 µM, first compound 1 µM): 109% | viability, T/C (second compound 0.1 µM, first compound 3.16 µM): 97.1% | viability, T/C (second compound 0.1 µM, first compound 10 µM): 86.6% | viability, T/C (second compound 0.316 µM, first compound 0.0316 µM): 104% | viability, T/C (second compound 0.316 µM, first compound 0.1 µM): 108% | viability, T/C (second compound 0.316 µM, first compound 0.316 µM): 105% | viability, T/C (second compound 0.316 µM, first compound 1 µM): 93.3% | viability, T/C (second compound 0.316 µM, first compound 3.16 µM): 102% | viability, T/C (second compound 0.316 µM, first compound 10 µM): 89.3% | viability, T/C (second compound 1 µM, first compound 0.0316 µM): 94.5% | viability, T/C (second compound 1 µM, first compound 0.1 µM): 95.4% | viability, T/C (second compound 1 µM, first compound 0.316 µM): 83% | viability, T/C (second compound 1 µM, first compound 1 µM): 83.2% | viability, T/C (second compound 1 µM, first compound 3.16 µM): 80.8% | viability, T/C (second compound 1 µM, first compound 10 µM): 81.8% | viability, T/C (second compound 3.16 µM, first compound 0.0316 µM): 62% | viability, T/C (second compound 3.16 µM, first compound 0.1 µM): 59.7% | viability, T/C (second compound 3.16 µM, first compound 0.316 µM): 56.2% | viability, T/C (second compound 3.16 µM, first compound 1 µM): 62.1% | viability, T/C (second compound 3.16 µM, first compound 3.16 µM): 60.5% | viability, T/C (second compound 3.16 µM, first compound 10 µM): 52.3% | viability, T/C (second compound 10 µM, first compound 0.0316 µM): 17% | viability, T/C (second compound 10 µM, first compound 0.1 µM): 18.7% | viability, T/C (second compound 10 µM, first compound 0.316 µM): 17.9% | viability, T/C (second compound 10 µM, first compound 1 µM): 14.5% | viability, T/C (second compound 10 µM, first compound 3.16 µM): 17.9% | viability, T/C (second compound 10 µM, first compound 10 µM): 17.9%
